We go through 25 molecules from ChEMBL document CHEMBL5150003, “Why All the Fury over Furin?” (J Med Chem, 2022).

Numbered stars: 1 amine (or outer) side, 2 acyl side, 3 side chain; on linkers, the order of the positions; unused ones are H or OH. Square brackets hold non-standard residues; d marks the D form. Peptide text beside a SMILES is read from it. * marks the point of attachment. X2 = CC(C(=O)[*:2])n1cc(C(CCCNC(=N)N)N[*:1])nn1; X1 = C[C@@H](O)[C@H](NN(CCCNC(N)N)CN*)C(N)=O; NH(4-amidinobenzyl) = N=C(N)c1ccc(CN*)cc1; PhAc = O=C(Cc1ccccc1)*; X5 = N=C(N)NC/C=C/CN* A value given as a limit tells only on which side of the number the result lay.

The target in series [1] is T1, Furin (Homo sapiens, UniProt P09958). Briefly: Inhibition of soluble recombinant human furin using pyroGlu-Arg-Thr-Lys-Arg-AMC as substrate and measured by fluorescence assay.
T1 sequence (P09958 whole entry): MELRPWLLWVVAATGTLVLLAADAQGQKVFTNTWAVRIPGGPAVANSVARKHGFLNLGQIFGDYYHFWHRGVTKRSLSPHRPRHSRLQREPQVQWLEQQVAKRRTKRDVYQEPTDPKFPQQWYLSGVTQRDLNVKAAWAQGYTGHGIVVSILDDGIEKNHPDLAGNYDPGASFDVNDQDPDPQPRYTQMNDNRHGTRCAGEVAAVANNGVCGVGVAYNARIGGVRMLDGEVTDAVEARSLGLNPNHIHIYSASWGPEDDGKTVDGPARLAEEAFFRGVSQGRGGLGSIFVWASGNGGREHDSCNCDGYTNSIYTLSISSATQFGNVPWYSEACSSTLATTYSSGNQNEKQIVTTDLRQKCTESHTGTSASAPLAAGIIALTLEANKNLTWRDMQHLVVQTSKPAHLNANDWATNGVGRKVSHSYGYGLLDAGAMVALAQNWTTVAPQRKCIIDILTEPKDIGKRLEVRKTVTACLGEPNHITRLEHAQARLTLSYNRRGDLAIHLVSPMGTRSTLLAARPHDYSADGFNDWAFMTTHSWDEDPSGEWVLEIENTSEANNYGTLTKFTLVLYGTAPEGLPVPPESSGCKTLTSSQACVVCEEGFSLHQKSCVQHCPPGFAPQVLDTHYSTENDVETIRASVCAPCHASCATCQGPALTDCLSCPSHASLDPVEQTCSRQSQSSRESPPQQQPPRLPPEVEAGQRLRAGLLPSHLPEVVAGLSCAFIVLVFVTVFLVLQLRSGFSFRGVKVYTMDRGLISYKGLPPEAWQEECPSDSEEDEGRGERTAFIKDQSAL
A short description of series [2]: Stability in mouse plasma assessed as compound remaining measured after 24 hrs. The format is ADME, cell-free. The settings on record: read-out: Stability.
The nature of series [3]: Stability in mouse plasma assessed as half-life. The series is classed as ADME, cell-free.
For another series, the system named is Vero. Put plainly: Protective activity against Escherichia coli O157:H7 Shiga toxin-induced cytotoxicity in monkey Vero cells measured by LDH assay. The series is classed as functional, cell-based. Particulars: Chlorocebus sabaeus.
The target in series [4] is T1, Furin. Briefly: Inhibition of furin (unknown origin).
Series [5] has as its target T1, Furin. Briefly: Inhibition of recombinant human furin using Phac-Arg-Val-Arg-Arg-AMC as substrate incubated for 30 mins and measured by microplate reader method.
A short description of series [6]: Inhibition of migration of human HT-1080 cells at 100 uM measured by calcein AM/ethidium homodimer (EthD-1) staining method. The format is functional.
A further series deals with RAW264.7. Put plainly: Protective activity against Anthrax toxin-induced cytotoxicity in mouse RAW264.7 cells measured by WST-1 method. The format is functional. The settings on record: dose 100 µM. (In general: Formazan colour is commonly taken as a measure of viable cells.)
Series [7] in a line: Cytotoxicity against chinese hamster CHO-DG44 cells assessed as cell viability at 100 uM and measured after 2 hrs by WST-1 method. Particulars: read-out: Activity. The series is classed as toxicity, cell-based, Cricetulus griseus.
A short description of series [8]: Cytotoxicity against human HT-1080 cells assessed as cell viability at 100 uM and measured after 2 hrs by WST-1 method. The settings on record: read-out: Activity. The format is toxicity, cell-based.
For series [9], the target named is T1, Furin. Briefly: Inhibition of Recombinant vaccinia-expressed furin (unknown origin) using Pyr-RTKR-MCA as substrate and measured by fluorescence based assay.
Series [10] in a line: Protective activity against Pseudomonas aeruginosa exotoxin A-induced cytotoxicity in chinese hamster CHO-DG44 cells measured by WST-1 method. The format is functional, Cricetulus griseus. The settings on record: dose 100 µM.
Series [11] relates to Mus musculus. Briefly: Antifibrotic activity against bleomycin-induced mouse lung fibrosis model assessed as inhibition of TGF-beta secretion in lung at 30 mg/kg, po administered once daily. The format is functional.
Series [12] relates to Mus musculus. Put plainly: Antifibrotic activity against bleomycin-induced mouse lung fibrosis model assessed as inhibition of hydroxyproline content in lung at 30 mg/kg, po administered once daily. The format is functional.
Series [13] concerns the target T1, Furin. Put plainly: Inhibition of furin in human U2OS cells measured after 24 hrs by fluorescence assay. The format is cell-based.

Take `C/C(=N\NC(=N)N)c1ccc(OCCCOc2ccc(/C(C)=N/NC(=N)N)cc2)cc1`: the Ki on Furin [1] is 1.43 µM.

`CC(=O)N[C@@H](CCCNC(=N)N)C(=O)NN(CCCNC(=N)N)CC(=O)N[C@@H](C)C(=O)N[C@@H](CCCNC(=N)N)C(=O)N[C@@H](CCCNC(=N)N)C(=O)N[C@@H](CCCNC(=N)N)C(=O)N[C@@H](CCCCN)C(=O)N[C@@H](CCCCN)C(=O)N[C@@H](CCCNC(=N)N)C(=O)N[C@H](C(N)=O)[C@@H](C)O`: the remaining at 24 h in series [2] came out at 29%. Moreover, in series [3], the half-life is 1.04 h. The IC50 in the series on Vero was over 1000 µM. At Furin [4], this molecule returned a Ki of 0.012 µM.

Take `N=C(N)N/N=C/c1ccc(Oc2ccc(Oc3ccc(/C=N/NC(=N)N)cc3)cc2)cc1`: the Ki on Furin [1] stood at 0.74 µM.

Turning to `C/C(=N\NC(=N)N)c1ccc(NC(=O)CCCCC(=O)Nc2ccc(/C(C)=N/NC(=N)N)cc2)cc1`, the Ki on Furin [1] is 1.21 µM.

With `CC(C)(C)[C@H](NC(=O)CCCCNC(=N)N)C(=O)N[C@@H](CCCNC(=N)N)C(=O)NCc1ccc(C(=N)N)cc1`, on Furin [5], the inhibition constant Ki turned out to be 1.26 nM.

For the molecule `N=C(N)N/N=C/c1ccc(N2CCN(c3ccc(/C=N/NC(=N)N)cc3)CC2)cc1`, the inhibition constant Ki on Furin [1] amounted to 1.54 µM.

`CC1C(=O)N[C@@H](CCCNC(=N)N)C(=O)N[C@@H](C)C(=O)N[C@@H](CCCNC(=N)N)C(=O)N[C@@H](CCCNC(=N)N)C(=O)N[C@@H](CCCNC(=N)N)C(=O)N[C@H](C(=O)N[C@@H](CCCCN)C(=O)N[C@@H](CCCNC(=N)N)C(=O)N[C@H](C(N)=O)[C@@H](C)O)CCCCNC(CCCNC(=N)N)c2cn1nn2` (stereo not given in full): the remaining at 24 h in series [2] is 28%. Besides, the half-life in series [3] is 0.7 h. At Furin [4], the affinity, expressed as Ki, was 0.0167 µM.

With `N=C(N)Nc1ccc(OCCCOc2ccc(NC(=N)N)cc2NC(=N)N)c(NC(=N)N)c1`, in series [6], the inhibition at 100 µM was under 40%. Moreover, the Activity in the series on RAW264.7 was 50%; in series [10] it was under 30%. The viability at 2 h, 100 µM in series [7] and in series [8] was over 90% throughout. In addition, on Furin [9], the Ki stood at 2.7 µM.

In the case of `CC(=O)N[C@@H](CCCNC(=N)N)C(=O)N[C@@H](C)C(=O)N[C@@H](CCCNC(=N)N)C(=O)N[C@@H](CCCNC(=N)N)C(=O)N[C@@H](CCCNC(=N)N)C(=O)N[C@@H](CCCCN)C(=O)N[C@@H](CCCCN)C(=O)NCN(CCCNC(N)N)N[C@H](C(N)=O)[C@@H](C)O` (Ac-RARRRKK-X1), in series [2], the remaining at 24 h turned out to be 57%. Moreover, in series [3], the half-life was 2.25 h. For the same molecule, the IC50 in the series with Vero stood at 314 µM. On Furin [4], this molecule had a Ki of 0.028 µM.

Turning to `CC(C)(C)[C@H](NC(=O)[C@H](CCCNC(=N)N)NC(=O)Cc1ccc(CNC(=N)N)cc1)C(=O)N[C@@H](CCCONC(=N)N)C(=O)NCc1ccc(C(=N)N)cc1`, the Ki at Furin [5] was 0.0131 nM.

With `CC(C)[C@H](NC(=O)[C@H](CCCNC(=N)N)NC(=O)[C@H](CCCNC(=N)N)NC(=O)[C@H](CCCNC(=N)N)NC(=O)Cc1ccccc1)C(=O)N[C@@H](CCCNC(=N)N)C(=O)NCc1ccc(C(=N)N)cc1` (PhAc-RRRVR-{NH(4-amidinobenzyl)}), the Ki at Furin [5] was 0.0138 nM.

Turning to `O=C(O)CC1CCN(Cc2cc(Oc3cnc(N4CCN5CCC4C5)nc3)nc(-c3cc(Cl)cc(Cl)c3)c2)CC1` (stereo not given), the inhibition in vivo at 30 mg/kg turned out to be 36% in the series on Mus musculus [11] and 34% in the series on Mus musculus [12]. On Furin [13], this molecule showed a pXC50 of 7.7.

For the molecule `CC(=O)NCC1CCN(Cc2cc(Oc3ccc(N4CCN(CCS(C)(=O)=O)CC4)nc3)nc(-c3cc(Cl)cc(Cl)c3)c2)CC1`, the results for the inhibition in vivo at 30 mg/kg in the series with Mus musculus [11] and with Mus musculus [12] were 41% and 45%, respectively. The molecule further registered a pXC50 at Furin [13] of 7.6.

Regarding `N=C(N)Nc1ccc(OC2CCCC(Oc3ccc(NC(=N)N)cc3NC(=N)N)C2)c(NC(=N)N)c1` (stereo not given), the inhibition at 100 µM in series [6] is under 40%. Besides, the figures for the Activity (in the series with RAW264.7; in [10]) were 70% and 30%, respectively. The viability at 2 h, 100 µM in series [7] and in [8] was over 90% throughout. Moreover, on Furin [9], the Ki turned out to be 1.2 µM.

For the molecule `CC(=O)N[C@@H](CCCNC(=N)N)C(=O)N[C@@H](C)C(=O)N[C@@H](CCCNC(=N)N)C(=O)N[C@@H](CCCNC(=N)N)C(=O)N[C@@H](CCCNC(=N)N)C(=O)N[C@@H](CCCCN)C(=O)N[C@@H](CCCCN)C(=O)NCc1ccc(C(=N)N)cc1` (Ac-RARRRKK-{NH(4-amidinobenzyl)}), the half-life in series [3] was 9.1 h. In the series with Vero, this molecule returned an IC50 of over 1000 µM. The Ki on Furin [4] amounted to 0.0038 µM.

For `CN1CCCN(c2cnc(Oc3cc(CN4CCC(CC(=O)O)CC4)cc(-c4cc(Cl)cc(Cl)c4)n3)cn2)CC1`, the values for the inhibition in vivo at 30 mg/kg in the series on Mus musculus [11] and in the series with Mus musculus [12] were 26% and 21%, respectively. This molecule showed a pXC50 on Furin [13] of 7.7.

Turning to `COC(=O)NCC1CCN(Cc2cc(Oc3cnc(N4CCN(CCC(=O)O)CC4)nc3)nc(-c3cc(Cl)cc(Cl)c3)c2)CC1`, the results for the inhibition in vivo at 30 mg/kg in the series with Mus musculus [11] and in the series on Mus musculus [12] were 7% and -14%, respectively. On Furin [13], this molecule showed a pXC50 of 7.5.

Consider `CC(C)[C@H](NC(=O)CCCCNC(=N)N)C(=O)N[C@@H](CCCNC(=N)N)C(=O)NCc1ccc(C(=N)N)cc1`, for which, at Furin [5], the inhibitory constant (Ki) came out at 2.5 nM.

With `N=C(N)N/N=C/c1cccc(OCCCOc2cccc(/C=N/NC(=N)N)c2)c1`, the Ki at Furin [1] worked out at 1.7 µM.

For the molecule `CC(=O)NN(CCCNC(=N)N)CC(=O)N[C@@H](C)C(=O)N[C@@H](CCCNC(=N)N)C(=O)N[C@@H](CCCNC(=N)N)C(=O)N[C@@H](CCCNC(=N)N)C(=O)N[C@@H](CCCCN)C(=O)N[C@@H](CCCCN)C(=O)NN(CCCNC(=N)N)CC(=O)N[C@H](C(N)=O)[C@@H](C)O`, in [2], the remaining at 24 h was 45%. Further, the half-life in [3] is 2.68 h. In the series with Vero, this molecule registered an IC50 of 20.8 µM. This molecule showed a Ki at Furin [4] of 0.046 µM.

For `N=C(N)Nc1ccc(O[C@H]2C[C@@H](Oc3ccc(NC(=N)N)cc3NC(=N)N)[C@H](NC(=N)N)C[C@@H]2NC(=N)N)cc1`, in [6], the inhibition at 100 µM was 30%. Also, the Activity in the series on RAW264.7 was over 80%; in [10], over 30%. Besides, the viability at 2 h, 100 µM in series [7] and in [8] was over 90% in each case. Also, the Ki on Furin [9] turned out to be 0.089 µM.

Regarding `CC(C(=O)N[C@@H](C)C(=O)N[C@@H](CCCNC(=N)N)C(=O)N[C@@H](CCCNC(=N)N)C(=O)N[C@@H](CCCNC(=N)N)C(=O)N[C@@H](CCCCN)C(=O)N[C@@H](CCCCN)C(=O)N[C@@H](CCCNC(=N)N)C(=O)N[C@H](C(N)=O)[C@@H](C)O)n1cc(C(CCCNC(=N)N)NC(=O)[C@@H](N)CCCNC(=N)N)nn1` (stereo not given in full) (H-R[X2]ARRRKKRT-NH2), the remaining at 24 h in [2] came to 20%. In [3], the half-life was 1.24 h. Moreover, on Furin [4], the Ki came out at 0.013 µM.

As to `N=C(N)Nc1ccc(Oc2cccc(Oc3ccc(NC(=N)N)cc3NC(=N)N)c2)c(NC(=N)N)c1`, the inhibition at 100 µM in series [6] is under 20%. The Activity is reported as 100% in the series with RAW264.7 and under 40% in series [10]. For the same molecule, the viability at 2 h, 100 µM in series [7] and in series [8] was over 60% each time. In addition, the Ki at Furin [9] worked out at 0.4 µM.

As for `CC(=O)N[C@@H](CCCNC(=N)N)C(=O)N[C@@H](C)C(=O)N[C@@H](CCCNC(=N)N)C(=O)N[C@@H](CCCNC(=N)N)C(=O)N[C@@H](CCCNC(=N)N)C(=O)N[C@@H](CCCCN)C(=O)N[C@@H](CCCCN)C(=O)NC/C=C/CNC(=N)N` (Ac-RARRRKK-X5), the IC50 with Vero is 71 µM.

For the molecule `CN1CCCN(c2ncc(Oc3cc(CN4CCC(CC(=O)O)CC4)cc(-c4cc(Cl)cc(Cl)c4)n3)cn2)CC1`, the inhibition in vivo at 30 mg/kg with Mus musculus [11] was 34%; in the series on Mus musculus [12], 36%. This molecule also gave a pXC50 at Furin [13] of 8.2.

By Ki is commonly meant a measure of affinity in units of concentration, obtained from inhibition or displacement. One may read the half-life as how long it takes for the measured level to halve. A word on the IC50: it is the concentration needed to halve the response being measured. By inhibition is commonly meant the relative decrease from the control value, in per cent. A word on the inhibition in vivo: it is the relative decrease from the control value, in per cent.
